These results are taken from PubChem BioAssay (NCI).

Common to all, as to test: growth of human tumour cells (NCI), 48 h
Experiment [1] has as its system BT-549 breast.
Experiment [2] concerns SK-MEL-5 melanoma.
Experiment [3] has as its system NCI/ADR-RES ovarian.
For experiment [4], the system named is CAKI-1 renal.
The subject of experiment [5] is MDA-MB-231 breast.
The test system of experiment [6] is A498 renal.
In experiment [7] the test system is U251 CNS.
The subject of experiment [8] is SK-OV-3 ovarian.
In experiment [9] the test system is PC-3 prostate.
The test system of experiment [10] is HOP-92 NSCLC.

SMILES strings stand for the structures.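 Growth conditions: 96-well plates. Treatment: test compound, 48 hours, 5 concentrations. Analysis: linear interpolation between bracketing concentrations; unreached endpoints set to highest concentration. TGI marks complete inhibition of growth.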

On to `CC(C)CNc1nc2ncnc(N)c2[nH]1`, for which the TGI in [1], in [2], in [3], in [4], in experiment [5] and in experiment [6] was over 100 µM in each case. Moreover, the TGI in [7], in [8], in experiment [9] and in [10] was over 100 µM throughout.
On to `Cc1ccc(/C(O)=C/c2nc3ccccc3sc2=O)c(C)c1`, for which the TGI in experiment [1] was 79.6 µM; in experiment [2] it was over 100 µM; in experiment [3], over 100 µM; in experiment [4], over 100 µM; in [5] it was over 100 µM; in [6], over 100 µM. The TGI was over 100 µM in [7], over 100 µM in [8], over 100 µM in experiment [9] and 82.4 µM in [10].
Turning to `Cc1ccc([S@](=O)c2occc2C=O)cc1`, the TGI in [1] was 25.5 µM; in experiment [2], 23.1 µM; in experiment [3], over 61 µM; in experiment [4] it was 30.7 µM; in experiment [5] it was 24.2 µM; in [6] it was 32.3 µM. Moreover, the TGI in experiment [7] was found to be 27.4 µM; in experiment [8], 26.5 µM; in [9] it was 10.4 µM; in [10] it was 7.78 µM.
Consider `CCN(CC)N1C(=O)[N+](CC)(CC)N=C1[O-]`, for which the TGI in experiment [1], in experiment [2], in [3], in experiment [4], in experiment [5] and in experiment [6] was over 100 µM in each case. Further, the TGI in experiment [7], in experiment [8], in experiment [9] and in [10] was over 100 µM throughout.
